Measurements published in patent publication US5886033A, “Use of isoxazole and crotonamide derivatives for the treatment of carcinomatous disorders” (Hoechst Aktiengesellschaft, priority 1995, dated 1999).
Where a name gives a salt, the structure may show the parent alone. Read-outs that look alike come from different tables or passages of the source.

What was measured:
[1] = tested on: pyrimidine and purine nucleotides; settings: cited from earlier work
LoVo cells [2] = test: MTT test on LoVo cells with added uridine; type: cell-based, human; settings: for IC50: Homo sapiens, LoVo, Table 3
Experimental: (§1) 1×10^4 cells per well are inoculated into a 96-well microtiter plate. After 24 h, the test substances are added at various concentrations. Each group consists of 4 wells, the control is only incubated with medium. After 65 h, 50 μl of MTT (3-(4,5-dimethyl-2-thiazolyl)-2,5-diphenyl-2H-tetrazolium bromide; 2.5 mg/ml in PBS) are added and, after 7 h, the supernatant is removed. The color formed by the living cells is dissolved by addition of 100 μl of dimethyl sulfoxide/well. The extinction is measured at 492 nm for each well with the aid of a Multiscan photometer 340 CC (Flow). The cell lines used are obtainable as follows from the American Type Culture Collection: HUV-EC-C is ATCC CRL 1730; A-172 is ATCC CRL 1620; L 1210 is ATCC CCL 219; LoVo is ATCC CCL 229; C 6 is ATCC CCL 107 and a rat glioblastoma cell line.
(§2) The mean value is formed from the 4 wells of a group and the IC50 values are calculated from the dose-response curve using the Software 3.0 (Erithacus Software Ltd.).
The procedure is as in Example 6; uridine is additionally added to the batches.

L1210 = test: Inhibition of the proliferation of tumor cells (MTT test), L1210; type: cell-based; settings: Table 2; L1210, leukemia (mouse)
Experimental: (§3) Inhibition of the proliferation of tumor cells (MTT test)
as §1, §2

LoVo cells [3] = test: Inhibition of the proliferation of tumor cells (MTT test), LoVo; type: cell-based, human
Experimental: as §3, §1, §2

in vitro cell lines = settings: Peters et al., 1987; cited from earlier work
A-172 = test: Inhibition of the proliferation of tumor cells (MTT test), A-172; type: cell-based, human
Experimental: as §3, §1, §2

plasma uridine = settings: clinical investigations, cited from earlier work
HUV-EC-C = test: Inhibition of proliferation (MTT test), HUV-EC-C / HUVEC endothelial cells; type: cell-based, human
Experimental: as §3, §1, §2

C 6 = test: Inhibition of the proliferation of tumor cells (MTT test), C 6; type: cell-based, rat
Experimental: as §3, §1, §2

Human DHODH (spleen) = target: T1, Human DHODH (spleen) (Homo sapiens, UniProt Q02127); test: Human DHODH (spleen) enzyme activity; type: biochemical
T1 construct: Human DHODH (spleen) enzyme activity; from tissue; host or cells: human spleen
T1 sequence (Q02127 whole entry): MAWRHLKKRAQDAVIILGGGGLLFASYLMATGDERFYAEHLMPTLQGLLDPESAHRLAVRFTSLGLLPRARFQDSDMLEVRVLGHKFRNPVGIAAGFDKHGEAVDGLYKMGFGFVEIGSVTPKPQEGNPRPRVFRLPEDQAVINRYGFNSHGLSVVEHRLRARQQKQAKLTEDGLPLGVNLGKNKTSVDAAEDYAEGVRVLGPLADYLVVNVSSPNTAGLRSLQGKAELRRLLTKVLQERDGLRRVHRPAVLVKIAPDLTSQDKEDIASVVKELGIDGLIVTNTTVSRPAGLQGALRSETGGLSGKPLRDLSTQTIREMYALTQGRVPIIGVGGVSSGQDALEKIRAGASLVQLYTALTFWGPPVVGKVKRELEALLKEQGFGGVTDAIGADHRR

[4] = Homo sapiens, Table 2, colonic carcinoma, no uridine, read-out: MTT Test IC50
[5] = Homo sapiens, A 172, Table 2, A-172, glioblastoma, read-out: MTT Test IC50
[6] = Homo sapiens, Endothelial cell, Table 2, HUV-EC-C, endothelial cell, read-out: MTT Test IC50
[7] = Rattus norvegicus, C6, Table 2, C 6, rat glioblastoma, read-out: MTT Test IC50
[8] = Homo sapiens, Table 4, read-out: LoVo (tested as described in Example 6, MTT test)
[9] = Homo sapiens, A 172, Table 4, A172, read-out: A172 (tested as described in Example 6, MTT test)
[10] = Homo sapiens, HUVEC, Table 4, HUVEC, read-out: HUVEC (tested as described in Example 6, MTT test)
[11] = Rattus norvegicus, C6, Table 4, C 6, read-out: C 6 (tested as described in Example 6, MTT test)
[12] = human DHODH (spleen), read-out: DHODH IC50

Structure (SMILES)	IC50 (LoVo cells [3]; [8]) [µM]	IC50 (A-172; [9]) [µM]	IC50 (HUV-EC-C; [10]) [µM]	IC50 (C 6; [11]) [µM]	other results
Cc1c(-c2ccc(-c3ccccc3F)cc2)nc2ccc(F)cc2c1C(=O)O [Brequinar, reference compound]					depletion of nucleotides ([1]; Schwartsmann et al., 1988): depletion of pyrimidine ribo- and deoxyribonukleotides, but not of purine nucleotides; depletion of dTTP and dCTP ([1]; relative to UTP and CTP, uridine addition): proportional to that of UTP and CTP and can be prevented by the addition of uridine; IC50 (LoVo cells [2]; uridine 0 μM): 0.388 µM; IC50 (LoVo cells [2]; uridine 1000 μM): 129 µM; change of the IC50 value on the LoVo cell line on addition of increasing amounts of uridine (LoVo cells [2]; MTT test, in words): massive increase in the IC50 value; IC50 (L1210): 1 µM; IC50 (LoVo cells [3]; [4]): 0.388 µM; inhibition of growth of in vitro cell lines, reversal by nucleosides (in vitro cell lines): can be abolished by addition of uridine or cytidine, but not by deoxythymidine or deoxycytidine; IC50 (A-172; [5]): 0.2 µM; plasma uridine values (plasma uridine; Peters et al., 1988): significantly lowers the plasma uridine values; correlation of in vivo uridine level effects with bone marrow and gastrointestinal tract toxicity (plasma uridine): correlated with the bone marrow and gastrointestinal tract toxicity; IC50 (HUV-EC-C; [6]): 9.4 µM; IC50 (C 6; [7]): 9 µM
C#CCCC(O)=C(C#N)C(=O)Nc1ccc(C(F)(F)F)cc1 [Compound 1, N-(4-Trifluoromethylphenyl)-2-cyano-3-hydroxyhept-2-en-6-yne-carboxamide sodium salt]	137	78	164	68	IC50 (LoVo cells [2]; uridine 0 μM): 168 µM; IC50 (LoVo cells [2]; uridine 1000 μM): 278 µM; IC50 (L1210): 9.1 µM; IC50 (LoVo cells [3]; [4]): 137 µM; IC50 (Human DHODH (spleen)): 0.292 µM; IC50 (A-172; [5]): 78 µM; IC50 (HUV-EC-C; [6]): 164 µM; IC50 (C 6; [7]): 68 µM
N#CC(C(=O)Nc1ccc(C#N)cc1)=C(O)C1CC1 [Compound 2, 2-Cyano-3-cyclopropyl-3-hydroxyacrylic acid (4-cyanophenyl)amide sodium salt]	392	169	360	20	IC50 (LoVo cells [2]; uridine 0 μM): 359 µM; IC50 (LoVo cells [2]; uridine 1000 μM): 560 µM; IC50 (L1210): 6.1 µM; IC50 (LoVo cells [3]; [4]): 392 µM; IC50 (Human DHODH (spleen); [12]): 0.625 µM; IC50 (A-172; [5]): 169 µM; IC50 (HUV-EC-C; [6]): 360 µM; IC50 (C 6; [7]): 20 µM
N#CC(C(=O)Nc1ccc(C(F)(F)F)cc1)=C(O)C1CC1 [Compound 5]	34	30	94	5	
N#CC(C(=O)Nc1ccc(Cl)cc1)=C(O)C1CC1 [Compound 6]	24	25	> 400	11	
N#CC(C(=O)Nc1ccc(Br)cc1)=C(O)C1CC1 [Compound 7]	37	37	267	11	
N#CC(C(=O)Nc1ccc(Oc2ccccc2)cc1)=C(O)C1CC1 [Compound 8]	13	28	138	18	
C=CC(O)=C(C#N)C(=O)Nc1ccc(C(F)(F)F)cc1 [Compound 9]	400	193	> 400	21	
N#CC(C(=O)Nc1ccc(OC(F)(F)F)cc1)=C(O)C1CC1 [Compound 10]	21	25	186	4	
C=CCC(O)=C(C#N)C(=O)Nc1ccc(C(F)(F)F)cc1 [Compound 11]	160	55	187	57	
Cc1cc(NC(=O)C(C#N)=C(O)C2CC2)ccc1C(F)(F)F [Compound 12]	55	43	322	6	IC50 (Human DHODH (spleen); [12]): 0.539 µM
Cc1cc(NC(=O)C(C#N)=C(O)C2CC2)ccc1F [Compound 13]	15	32	> 400	13	
Cc1cc(NC(=O)C(C#N)=C(O)C2CC2)ccc1C(F)(F)F [Compound 14]					IC50 (LoVo cells [3]; Table 4, read-out: LoVo (tested as described in Example 6, MTT test)): 61 µM; IC50 (A-172; Table 4, A172, read-out: A172 (tested as described in Example 6, MTT test)): 58 µM; IC50 (HUV-EC-C; Table 4, HUVEC, read-out: HUVEC (tested as described in Example 6, MTT test)): 197 µM; IC50 (C 6; Table 4, C 6, read-out: C 6 (tested as described in Example 6, MTT test)): 7 µM
N#CC(C(=O)Nc1ccc(SC(F)(F)F)cc1)=C(O)C1CC1 [Compound 15]	21	13	98	2	
Cc1cc(Cl)ccc1Oc1ccc(NC(=O)C(C#N)=C(O)C2CC2)cc1 [Compound 16]	7	17	299	36	
C=CCCC(O)=C(C#N)C(=O)Nc1ccc(C(F)(F)F)cc1 [Compound 17]	75	55	127	186	
N#CC(C(=O)Nc1ccc(Oc2ccc(F)cc2)cc1)=C(O)C1CCC1 [Compound 18]	110	190	159	84	
C=CCC(O)=C(C#N)C(=O)Nc1ccc(SC(F)(F)F)cc1 [Compound 19]	171	118	135	32	
N#CC(C(=O)Nc1ccc(Oc2ccc(F)cc2)cc1)=C(O)C1CCCC1 [Compound 20]	119	158	> 400	182	
C=CCCC(O)=C(C#N)C(=O)Nc1ccc(C)c(C)c1 [Compound 21]	27	63	339	69	
C=CCC(O)=C(C#N)C(=O)Nc1ccc(F)cc1 [Compound 22]	149	> 400	> 400	103	
N#CC(C(=O)Nc1ccc(C(F)(F)F)cn1)=C(O)C1CC1 [Compound 23]	75	94	> 400	7	
N#CC(C(=O)Nc1ccc(-c2ccccc2)cc1)=C(O)C1CC1 [Compound 24]					IC50 (LoVo cells [3]; Homo sapiens, read-out: LoVo (tested as described in Example 6, MTT test)): 6 µM; IC50 (A-172; Homo sapiens, A 172, read-out: A172 (tested as described in Example 6, MTT test)): 22 µM; IC50 (HUV-EC-C; Homo sapiens, HUVEC, read-out: HUVEC (tested as described in Example 6, MTT test)): 74 µM; IC50 (C 6; Rattus norvegicus, C6, read-out: C 6 (tested as described in Example 6, MTT test)): 34 µM
CC(C)=CCCC(O)=C(C#N)C(=O)Nc1ccc(C(F)(F)F)cc1 [Compound 25]	306	95	301	87	
CC=CC=CC(O)=C(C#N)C(=O)Nc1ccc(C(F)(F)F)cc1 [Compound 26]	146	200	378	24	
C#CCCC(O)=C(C#N)C(=O)Nc1ccc(Cl)cn1 [Compound 27]	153	142	> 400	126	
